Patent publication US6734292B1, “Pseudoerythromycin derivatives” (The Kitasato Institute, priority 2002, dated 2004)

Test system: THP-1 cells
Assay: enhancing effect for differentiation-induction from human monocyte to macrophage (THP-1/Mφ system, MTT readout)
Format: cell-based
Parameters: key: ++: enhanced 100% or more; +: enhanced 50-100%; ±: enhanced 25-50%; −: no activity; /: expressed cytoxicity; NT: not tested or under assessment
Conditions: in comparison with enhancing action for differentiation-induction of EM 100 μM
Description: In order to confirm enhancing effect for differentiation-induction of the compounds of the present invention, the enhancing effect for differentiation-induction from human monocyte to macrophage was assayed. Method is performed as follows. THP-1 cells were collected from cultured liquid by centrifugation, adjusted the concentration to 2×10^5 cells/ml using medium (RPMI 1640) and distributed into the 48-well plate at 500 μl/well. PMA solution 10 μl and sample solution 5 μl were added in each well, stirred with mild shaking and incubated at 37° C. for 72-96 hours under 5% CO2. Further MTT 0.5 mg/ml solution was added at 300 μl/well, and incubated at 37° C. for 3 hours under 5% CO2. Supernatant solution was suctioned using the injection tube, added DMSO 500 μl using automatic continuous injector to dissolve formazan completely and transferred each 100 μl to the 96-well plate. The optical absorption was measured using the plate-reader.

| SMILES | activities in THP-1/Mφ system, Treated conc. 0.3 μM | activities in THP-1/Mφ system, Treated conc. 1 μM | activities in THP-1/Mφ system, Treated conc. 3 μM | activities in THP-1/Mφ system, Treated conc. 10 μM | activities in THP-1/Mφ system, Treated conc. 30 μM |
| --- | --- | --- | --- | --- | --- |
| COC1(C)CC(OC2C(C)C(=O)OC(C(C)O)C(C)C3=C(C)CC(C)(O3)C(OC3OC(C)CC(N(C)C)C3O)C2C)OC(C)C1O (stereo not drawn) [EM746, de[12-(hydroxypropyl)]-8,9-anhydro-pseudo erythromycin A 6,9-hemiketal] | − | ± (enhanced 25-50%) | + (enhanced 50-100%) | + (enhanced 50-100%) | + (enhanced 50-100%) |
| C#CCNC1CC(C)OC(OC2C(C)C(OC3CC(C)(OC)C(O)C(C)O3)C(C)C(=O)OC(C(C)(O)C(O)CC)C(C)C3=C(C)CC2(C)O3)C1O (stereo not drawn) [EM728, bis-de(3′-N-methyl)-3′-N-propargyl-8,9-anhydro-pseudoerythromycin A 6,9-hemiketal] | − | + (enhanced 50-100%) | + (enhanced 50-100%) | + (enhanced 50-100%) | + (enhanced 50-100%) |
| COC1(C)CC(OC2C(C)C(=O)OC(C(C)N)C(C)C3=C(C)CC(C)(O3)C(OC3OC(C)CC(N(C)C)C3O)C2C)OC(C)C1O (stereo not drawn) [EM750, de(12-hydroxy)-de[12-(hydroxypropyl)]-12-amino-8,9-anhydro-pseudoerythromycin A 6,9-hemiketal] |  | − | − | ± (enhanced 25-50%) |  |
| C=CCNC1CC(C)OC(OC2C(C)C(OC3CC(C)(OC)C(O)C(C)O3)C(C)C(=O)OC(C(C)(O)C(O)CC)C(C)C3=C(C)CC2(C)O3)C1O (stereo not drawn) [EM724, bis-de(3′-N-methyl)-3′-N-allyl-8,9-anhydro-pseudoerythromycin A 6,9-hemiketal] | − | + (enhanced 50-100%) | + (enhanced 50-100%) | ++ (enhanced 100% or more) |  |
| CCC(O)C(C)(O)C1OC(=O)C(C)C(OC2CC(C)(OC)C(O)C(C)O2)C(C)C(OC2OC(C)CC(NC(C)=O)C2O)C2(C)CC(C)=C(O2)C1C (stereo not drawn) [EM726, bis-de(3′-N-methyl)-3′-N-acetyl-8,9-anhydro-pseudoerythromycin A 6,9-hemiketal] | − | − | − | − | − |
| CCC(O)C(C)(O)C1OC(=O)C(C)C(OC2CC(C)(OC)C(O)C(C)O2)C(C)C(OC2OC(C)CC(N3CCCC3)C2O)C2(C)CC(C)=C(O2)C1C (stereo not drawn) [EM735, de(3′-dimethylamino)-3′-pyrrolidino-8,9-anhydro-pseudoerythromycin A 6,9-hemiketal] | − | ± (enhanced 25-50%) | + (enhanced 50-100%) | ++ (enhanced 100% or more) |  |
| CC[C@H]1OC(=O)[C@H](C)[C@@H](O[C@H]2C[C@@](C)(OC)[C@@H](O)[C@H](C)O2)[C@H](C)[C@@H](O[C@@H]2O[C@H](C)C[C@H](N(C)C)[C@H]2O)[C@](C)(OC)C[C@@H](C)C(=O)[C@H](C)[C@@H](O)[C@]1(C)O [CAM, reference compound] |  |  | − | + (enhanced 50-100%) | − |
| C#CCN(CC#C)C1CC(C)OC(OC2C(C)C(OC3CC(C)(OC)C(O)C(C)O3)C(C)C(=O)OC(C(C)(O)C(O)CC)C(C)C3=C(C)CC2(C)O3)C1O (stereo not drawn) [EM729, bis-de(3′-N-methyl)-3′,3′-N,N-di-propargyl-8,9-anhydro-pseudoerythromycin A 6,9-hemiketal] | − | ± (enhanced 25-50%) | ± (enhanced 25-50%) | ± (enhanced 25-50%) |  |
| CCC(O)C(C)(O)C1OC(=O)C(C)C(OC2CC(C)(OC)C(O)C(C)O2)C(C)C(OC2OC(C)CC(N(C)S(C)(=O)=O)C2O)C2(C)CC(C)=C(O2)C1C (stereo not drawn) [EM727, de(3′-N-methyl)-3′-N-sulfonyl-8,9-anhydro-pseudoerythromycin A 6,9-hemiketal] | − | + (enhanced 50-100%) | + (enhanced 50-100%) | + (enhanced 50-100%) |  |
| CCC(O)C(C)(O)C1OC(=O)C(C)C(OC2CC(C)(OC)C(O)C(C)O2)C(C)C(OC2OC(C)CC(N(C)CC#N)C2O)C2(C)CC(C)=C(O2)C1C (stereo not drawn) [EM742, de(3′-N-methyl)-3′-cyanomethyl-8,9-anhydro-pseudoerythromycin A 6,9-hemiketal] | − | − | − | + (enhanced 50-100%) | + (enhanced 50-100%) |
| COC1(C)CC(OC2C(C)C(=O)OC(C(C)=NO)C(C)C3=C(C)CC(C)(O3)C(OC3OC(C)CC(N(C)C)C3O)C2C)OC(C)C1O (stereo not drawn) [EM743, de(12-hydroxy)-de[12-(1-hydroxypropyl)]-12-hydroxyoxime-8,9-anhydro-pseudoerythromycin A 6,9-hemiketal] |  | − | ± (enhanced 25-50%) | − |  |
| CCNC1CC(C)OC(OC2C(C)C(OC3CC(C)(OC)C(O)C(C)O3)C(C)C(=O)OC(C(C)(O)C(O)CC)C(C)C3=C(C)CC2(C)O3)C1O (stereo not drawn) [EM722, bis-de(3′-N-methyl)-3′-N-ethyl-8,9-anhydro-pseudoerythromycin A 6,9-hemiketal] | − | + (enhanced 50-100%) | + (enhanced 50-100%) | ++ (enhanced 100% or more) |  |
| CCCN(CCC)C1CC(C)OC(OC2C(C)C(OC3CC(C)(OC)C(O)C(C)O3)C(C)C(=O)OC(C(C)(O)C(O)CC)C(C)C3=C(C)CC2(C)O3)C1O (stereo not drawn) [EM731, bis-de(3′-N-methyl)-3′,3′-N,N-di-propyl-8,9anhydro-pseudoerythromycin A 6,9-hemiketal] | − | − | + (enhanced 50-100%) |  |  |
| CC[C@H]1OC(=O)[C@H](C)[C@@H](O[C@H]2C[C@@](C)(OC)[C@@H](O)[C@H](C)O2)[C@H](C)[C@@H](O[C@@H]2O[C@H](C)C[C@H](N(C)C)[C@H]2O)[C@](C)(O)C[C@@H](C)C(=NO)[C@H](C)[C@@H](O)[C@]1(C)O [EM oxim, reference compound] |  | − | ± (enhanced 25-50%) | ± (enhanced 25-50%) | ++ (enhanced 100% or more) |
| CC[C@@H](O)[C@@](C)(O)[C@@H]1OC(=O)[C@H](C)[C@@H](O[C@H]2C[C@@](C)(OC)[C@@H](O)[C@H](C)O2)[C@H](C)[C@@H](O[C@@H]2O[C@H](C)C[C@H](N3CCOCC3)[C@H]2O)[C@@]2(C)CC(C)=C(O2)[C@@H]1C [EM747, de(3′-dimethylamino)-3′-morpholino-8,9-anhydro-pseudoerythromycin A 6,9-hemiketal] |  |  | − | ± (enhanced 25-50%) | ++ (enhanced 100% or more) |
| CCCNC1CC(C)OC(OC2C(C)C(OC3CC(C)(OC)C(O)C(C)O3)C(C)C(=O)OC(C(C)(O)C(O)CC)C(C)C3=C(C)CC2(C)O3)C1O (stereo not drawn) [EM730, bis-de(3′-N-methyl)-3′-N-propyl-8,9-anhydro-pseudoerythromycin A 6,9-hemiketal] | + (enhanced 50-100%) | + (enhanced 50-100%) | + (enhanced 50-100%) |  |  |
| CCC(O)C(C)(O)C1OC(=O)C(C)C(OC2CC(C)(OC)C(O)C(C)O2)C(C)C(OC2OC(C)CC(NCc3ccccc3)C2O)C2(C)CC(C)=C(O2)C1C (stereo not drawn) [EM732, bis-de(3′-N-methyl)-3′-N-benzyl-8,9-anhydro-pseudoerythromycin A 6,9-hemiketal] | + (enhanced 50-100%) | + (enhanced 50-100%) | + (enhanced 50-100%) | + (enhanced 50-100%) |  |
| CC[C@@H](O)[C@@](C)(O)[C@@H]1OC(=O)[C@H](C)[C@@H](O[C@H]2C[C@@](C)(OC)[C@@H](O)[C@H](C)O2)[C@H](C)[C@@H](O[C@@H]2O[C@H](C)C[C@H](N(CC)CC)[C@H]2O)[C@@]2(C)CC(C)=C(O2)[C@@H]1C [EM723, bis-de(3′-N-methyl)-3′,3′-N,N-diethyl-8,9-anhydro-pseudoerythromycin A 6,9-hemiketal] | − | + (enhanced 50-100%) | + (enhanced 50-100%) |  |  |
